Measurements taken from ChEMBL document CHEMBL1201862, “PubChem BioAssay data set” (2004).
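How tested: cells in 96-well plates exposed to compound for 48 hours at five concentrations. GI50 = concentration required for 50% inhibition of growth.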 Calls of active or inactive are those of the source. Rule as the data show it: active = GI50 up to about 1.1 µM and inactive = higher.

Legend:
Assay in all cases: NCI tumour cell line growth inhibition, 48 h
ACHN = test system: ACHN
OVCAR-5 = test system: OVCAR-5
NCI-H460 = test system: NCI-H460
PC-3 = test system: PC-3
KM12 = test system: KM12
786-0 = test system: 786-0
T47D = test system: T47D
HOP-62 = test system: HOP-62
OVCAR-8 = test system: OVCAR-8
NCI-H226 = test system: NCI-H226
SK-MEL-5 = test system: SK-MEL-5
SN12C = test system: SN12C
A549 = test system: A549
SF-268 = test system: SF-268
U-251 = test system: U-251
NCI-H522 = test system: NCI-H522
CAKI-1 = test system: CAKI-1
UO-31 = test system: UO-31
MOLT-4 = test system: MOLT-4
HCC 2998 = test system: HCC 2998

SMILES	GI50 (ACHN)	GI50 (OVCAR-5)	GI50 (NCI-H460)	GI50 (PC-3)	GI50 (KM12)	GI50 (786-0)	GI50 (T47D)	GI50 (HOP-62)	GI50 (OVCAR-8)	GI50 (NCI-H226)	GI50 (SK-MEL-5)	GI50 (SN12C)	GI50 (A549)	GI50 (SF-268)	GI50 (U-251)	GI50 (NCI-H522)	GI50 (CAKI-1)	GI50 (UO-31)	GI50 (MOLT-4)	GI50 (HCC 2998)
N#Cc1c(NC(=O)CCC(=O)O)ccc2ccccc12	> 100 µM (inactive)	> 100 µM (inactive)	> 100 µM (inactive)	> 100 µM (inactive)	> 100 µM (inactive)	> 100 µM (inactive)	> 100 µM (inactive)	> 100 µM (inactive)	> 100 µM (inactive)	> 100 µM (inactive)	> 100 µM (inactive)	> 100 µM (inactive)	> 100 µM (inactive)	> 100 µM (inactive)	> 100 µM (inactive)	> 100 µM (inactive)	> 100 µM (inactive)	> 100 µM (inactive)		
CC(=O)OCc1cc(=O)n2c([nH]c3ccccc32)c1C#N	52.4 µM (inactive)	> 100 µM (inactive)	18.6 µM (inactive)	40.6 µM (inactive)		40.6 µM (inactive)	78.5 µM (inactive)		> 100 µM (inactive)	> 100 µM (inactive)	49.9 µM (inactive)	67 µM (inactive)	51.9 µM (inactive)		34 µM (inactive)		28.2 µM (inactive)	78.3 µM (inactive)	47.1 µM (inactive)	42.6 µM (inactive)
Clc1cc2nc(C3CCCO3)[nH]c2cc1Cl (stereo not given)	> 100 µM (inactive)	> 100 µM (inactive)		42.7 µM (inactive)	32.7 µM (inactive)	> 100 µM (inactive)	46.2 µM (inactive)	> 100 µM (inactive)	57.9 µM (inactive)	> 100 µM (inactive)	35.9 µM (inactive)	> 100 µM (inactive)	54.6 µM (inactive)	67 µM (inactive)	> 100 µM (inactive)	20.4 µM (inactive)		16.9 µM (inactive)	52 µM (inactive)	76.4 µM (inactive)
O=C(O)c1ccccc1SCc1cccc2c(=O)c3ccc(Cl)cc3oc12	32.4 µM (inactive)	> 50 µM (inactive)		26.8 µM (inactive)	> 50 µM (inactive)	25.3 µM (inactive)	> 50 µM (inactive)	12.9 µM (inactive)	> 50 µM (inactive)	> 50 µM (inactive)	> 50 µM (inactive)	> 50 µM (inactive)	> 50 µM (inactive)		17.5 µM (inactive)	29.2 µM (inactive)	> 50 µM (inactive)	> 50 µM (inactive)	> 50 µM (inactive)	> 50 µM (inactive)
COC(=O)N1CC(=O)C(C(=O)NC23CC4CC(CC(C4)C2)C3)C1 (stereo not given)	74.3 µM (inactive)	> 100 µM (inactive)	78.7 µM (inactive)	52 µM (inactive)	41.8 µM (inactive)	33.3 µM (inactive)	47.8 µM (inactive)		73.1 µM (inactive)	> 100 µM (inactive)	45.6 µM (inactive)		> 100 µM (inactive)	37.7 µM (inactive)	67.3 µM (inactive)	49.3 µM (inactive)	> 100 µM (inactive)	> 100 µM (inactive)	35.8 µM (inactive)	37 µM (inactive)
Cn1c(COC(=O)NC2CCCCC2)c(COC(=O)NC2CCCCC2)c2ccc3cc(Cl)c(Cl)cc3c21	14.3 µM (inactive)	16 µM (inactive)	4.41 µM (inactive)	15.3 µM (inactive)	15.6 µM (inactive)	6 µM (inactive)	5.37 µM (inactive)		28.2 µM (inactive)	34.2 µM (inactive)	11.7 µM (inactive)	11.7 µM (inactive)	48.1 µM (inactive)	6.4 µM (inactive)	6 µM (inactive)		2.62 µM (inactive)	28.4 µM (inactive)	14.8 µM (inactive)	13.7 µM (inactive)
COC(=O)C1=C(C)NC2=C(C(=O)c3ccccc32)C1c1cn(-c2ccccc2)nc1-c1ccccc1 (stereo not given)	17.2 µM (inactive)	> 100 µM (inactive)		4.36 µM (inactive)	7.93 µM (inactive)	> 87.1 µM (inactive)	20.3 µM (inactive)	> 100 µM (inactive)	> 100 µM (inactive)	74.1 µM (inactive)	> 100 µM (inactive)	> 100 µM (inactive)	12 µM (inactive)	> 45.6 µM (inactive)	15.5 µM (inactive)	> 53.5 µM (inactive)	> 100 µM (inactive)	3.91 µM (inactive)	2.96 µM (inactive)	13.6 µM (inactive)
CN(C)C(=O)C(F)(F)C(c1ccccc1Br)C1C(=O)N(C)C(=O)N(C)C1=O (stereo not given)	> 100 µM (inactive)	> 100 µM (inactive)	> 100 µM (inactive)	> 100 µM (inactive)	> 100 µM (inactive)	> 100 µM (inactive)	> 100 µM (inactive)	> 100 µM (inactive)	> 100 µM (inactive)	> 100 µM (inactive)	> 100 µM (inactive)		> 100 µM (inactive)	> 100 µM (inactive)	> 100 µM (inactive)		> 100 µM (inactive)	> 100 µM (inactive)		> 100 µM (inactive)
C=C(C(=O)O)[C@@H]1C[C@@H]2O[C@H]1CC(C)=CCC/C(C)=C/CC[C@@]2(C)O	> 100 µM (inactive)	> 100 µM (inactive)	> 100 µM (inactive)	> 100 µM (inactive)	> 100 µM (inactive)	> 100 µM (inactive)	> 100 µM (inactive)		> 100 µM (inactive)	> 100 µM (inactive)	> 100 µM (inactive)	> 100 µM (inactive)	> 100 µM (inactive)	> 100 µM (inactive)	> 100 µM (inactive)	> 100 µM (inactive)	> 100 µM (inactive)	> 100 µM (inactive)	> 100 µM (inactive)	> 100 µM (inactive)
CCOP(=O)(OCC)/C(C#N)=C(\C)c1ccco1	> 10 µM (inactive)	> 10 µM (inactive)	> 10 µM (inactive)	> 10 µM (inactive)	> 10 µM (inactive)	> 10 µM (inactive)	> 10 µM (inactive)	> 10 µM (inactive)	> 10 µM (inactive)	> 10 µM (inactive)	> 10 µM (inactive)	> 10 µM (inactive)	> 10 µM (inactive)	> 10 µM (inactive)	> 10 µM (inactive)		> 10 µM (inactive)	> 10 µM (inactive)	> 10 µM (inactive)	> 10 µM (inactive)
COC(=O)[C@H]1[C@H](C(=O)OC)[C@@H](C)c2c(ccc3c2[nH]c2ccccc23)[C@@H]1C	44.5 µM (inactive)	> 100 µM (inactive)	36.8 µM (inactive)	37.4 µM (inactive)	32.9 µM (inactive)	21.2 µM (inactive)	13 µM (inactive)	35.6 µM (inactive)	46.3 µM (inactive)	> 100 µM (inactive)	> 100 µM (inactive)	13.2 µM (inactive)	31.1 µM (inactive)	48.9 µM (inactive)	62.1 µM (inactive)	41.5 µM (inactive)	68.4 µM (inactive)	> 100 µM (inactive)	0.3 µM (active)	
O=C(O)C1CCCCN1CCc1c[nH]c2ccccc12 (stereo not given)	> 100 µM (inactive)	> 100 µM (inactive)	> 100 µM (inactive)	> 100 µM (inactive)	> 100 µM (inactive)	> 100 µM (inactive)	> 100 µM (inactive)	> 100 µM (inactive)	> 100 µM (inactive)	> 100 µM (inactive)		> 100 µM (inactive)	> 100 µM (inactive)	> 100 µM (inactive)	> 100 µM (inactive)	> 100 µM (inactive)	> 100 µM (inactive)		> 100 µM (inactive)	> 100 µM (inactive)
CC(=O)/N=C1/N(/C=C2\C(=O)Oc3ccccc3C2=O)C(=O)/C(=C/c2cccc(Cl)c2Cl)N1C	13.7 µM (inactive)	30.3 µM (inactive)		35.3 µM (inactive)	26.7 µM (inactive)	34.3 µM (inactive)	32.1 µM (inactive)	19.7 µM (inactive)	19.7 µM (inactive)	24 µM (inactive)	12.9 µM (inactive)	42.6 µM (inactive)	28.2 µM (inactive)	20.4 µM (inactive)	23.1 µM (inactive)	18.2 µM (inactive)	27.4 µM (inactive)		20.7 µM (inactive)	16.7 µM (inactive)
O=c1[nH]nc(-c2cccc([N+](=O)[O-])c2)[nH]1	> 100 µM (inactive)	> 100 µM (inactive)	> 100 µM (inactive)	> 100 µM (inactive)	> 100 µM (inactive)	> 100 µM (inactive)	> 100 µM (inactive)	> 100 µM (inactive)	> 100 µM (inactive)	> 100 µM (inactive)		> 100 µM (inactive)	> 100 µM (inactive)	> 100 µM (inactive)	> 100 µM (inactive)	> 100 µM (inactive)	> 100 µM (inactive)	70.3 µM (inactive)	> 100 µM (inactive)	> 100 µM (inactive)
Cc1nn(-c2ccccc2)c2nc(S)cnc12		> 100 µM (inactive)	> 100 µM (inactive)	> 100 µM (inactive)		> 100 µM (inactive)	> 100 µM (inactive)	> 100 µM (inactive)	> 100 µM (inactive)	> 100 µM (inactive)		> 100 µM (inactive)	> 100 µM (inactive)	> 100 µM (inactive)	> 100 µM (inactive)	> 100 µM (inactive)	> 100 µM (inactive)	> 100 µM (inactive)	> 100 µM (inactive)	
